According to PubChem BioAssay AID179 (DTP/NCI, 2004):
pEC50, pIC50: −log10 of the molar value. Active and inactive are the calls of the source.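 Rule for the calls: active = compounds giving half or more protection of infected cells from virus-caused growth loss, again on retest; inactive = the rest.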

Tested on: CEM cells HIV-1 protection, formazan growth assay
Test: NCI AIDS Antiviral Assay
Conditions: for pIC50: measured here: growth of uninfected CEM cells
Outline: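 CEM (human) cells, HIV-1 infected vs uninfected, 5-point dosing, formazan growth read-out. Retest threshold 50% protection.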

O=C(O)CCC1CCc2cccc(OCC(=O)O)c2C1=O (stereo not drawn)
outcome: inactive

COC(=O)Cc1c(-c2c(CC(=O)OC)c3ccccc3n2C2OC(COC3OC(COC(C)=O)C(OC(C)=O)C(OC(C)=O)C3OC(C)=O)C(O)C(O)C2O)[nH]c2ccccc12 (stereo not drawn)
pEC50: 3.98 | pIC50: 3.82

CCOC(=O)/C=C(\C)NCCSSCCN/C(C)=C/C(=O)OCC
pEC50: < 3.70 | pIC50: 4.30

CNCc1c(S)ccc2ccccc12
outcome: inactive

CSc1c(C)n([O-])c2cc(Cl)c(Cl)cc2[n+]1=O
pEC50: < 4.00 | pIC50: 5.55

CCOC(=O)C1S(=O)(=O)OCCOS1(=O)=O
pEC50: < 2.24 | pIC50: 2.46

CN(C)c1nc(N(C)C)nc(N(C)CN(C)c2nc(N(C)C)nc(N(C)C)n2)n1
pEC50: < 4.30 | pIC50: < 4.30

CC1=C(C(=O)Nc2ccccc2C)C(c2ccc(C3C(C(=O)Nc4ccccc4C)=CNC=C3C(=O)Nc3ccccc3C)cc2)C(C(=O)Nc2ccccc2C)=C(C)N1
outcome: inactive

COC1c2ccccc2C2C(Cl)(Cl)C23c2ccccc2C13 (stereo not drawn)
pEC50: < 4.92 | pIC50: < 4.92

O=C(O)/C=C/c1ccc(O)cc1
pEC50: < 3.70 | pIC50: < 3.70

COc1ccc2c(c1OC)C(=O)c1cc(C(C)O)oc1C2=O (stereo not drawn)
outcome: inactive

c1ccc(P(=Nc2ccccc2N=P(c2ccccc2)(c2ccccc2)c2ccccc2)(c2ccccc2)c2ccccc2)cc1
outcome: inactive

Cc1ccc(S(=O)(=O)Sc2nnnn2-c2ccccc2)cc1
pEC50: < 4.80 | pIC50: < 4.80

O=[N+]([O-])c1nccn1CCCNCCCn1ccnc1[N+](=O)[O-]
pEC50: < 3.70 | pIC50: < 3.70

CN(Cc1ccccc1)C(=NC#N)N(C)Cc1ccccc1
pEC50: < 3.77 | pIC50: 3.89

O=C(CCc1cc(-c2ccc(F)cc2)n[nH]1)N(Cc1ccccc1)Cc1ccccc1
pEC50: < 4.76 | pIC50: < 4.76

CC1CCC2C(C(=O)O[C@H]3C4CCO[C@@H](OC5OC(CO)C(O)C(O)C5O)C4[C@@]4(CO)O[C@@H]34)=CO[C@@H](OC3OC(CO)C(O)C(O)C3O)C12 (stereo partly drawn)
pEC50: < 3.70 | pIC50: < 3.70

Cc1[nH]c2ccccc2c1-c1n[nH]c(=O)c2ccccc12
outcome: inactive

CC1=Nc2ccccc2NC(c2ccoc2)C1 (stereo not drawn)
pEC50: < 4.64 | pIC50: < 4.64

NCCCOc1ccc(-c2c3nc(cc4ccc([nH]4)c(-c4ccc(OCCCN)cc4)c4nc(cc5ccc2[nH]5)C=C4)C=C3)cc1
pEC50: 5.62 | pIC50: 5.48

CC(C)N(C(C)C)[PH+]1O[PH+](N(C(C)C)C(C)C)O[PH+](N(C(C)C)C(C)C)O[PH+](N(C(C)C)C(C)C)O1.[C-]#[O+].[C-]#[O+].[C-]#[O+].[C-]#[O+].[C-]#[O+].[C-]#[O+].[C-]#[O+].[C-]#[O+].[Mo].[Mo] (stereo not drawn)
pEC50: < 4.45 | pIC50: < 4.45

Cn1nnc2c(C(N)=O)ncn2c1=O
pEC50: < 2.89 | pIC50: 3.11

COc1ccccc1/C=C1\N=C(c2ccccc2)OC1=O
pEC50: < 3.70 | pIC50: 4.76

COc1cccc(/C=C\C#N)c1
pEC50: < 3.50 | pIC50: < 3.50

CC(=O)c1ccc2c(c1)CC1(C2)Cc2cc3c(cc2C1)C(=O)CC3 (stereo not drawn)
pEC50: < 3.70 | pIC50: 6.63

CCOC(=O)/C(=C\c1ccc(N(C)C)cc1)C(C)=O
pEC50: < 3.30 | pIC50: 3.79

CN(C)CCNC(=O)c1nc([N+](=O)[O-])cn1C
pEC50: < 3.70 | pIC50: < 3.70

N#CC(C#N)[C@@H]1CCC=C(Sc2ccccc2)[C@H]1Sc1ccccc1
pEC50: < 4.70 | pIC50: 5.44

COC1/C=C\OC2(C)Oc3c(C)c(O)c4c(O)c(c(/C=N\O)c(O)c4c3C2=O)NC(=O)/C(C)=C\C=C/C(C)C(O)C(C)C(O)C(C)C(OC(C)=O)C1C (stereo not drawn)
pEC50: < 4.11 | pIC50: 4.13

COC(C)(C)C1(O)CCC(C)CC1=O (stereo not drawn)
pEC50: < 4.00 | pIC50: < 4.00

Cc1ccc(S(=O)(=O)Oc2nc3ccccc3nc2OS(=O)(=O)c2ccc(C)cc2)cc1
pEC50: < 3.70 | pIC50: 4.41

CC1Cc2c(nc3n(c2=O)CCCCC3)O1 (stereo not drawn)
pEC50: < 3.39 | pIC50: < 3.39

CC(=O)ON1CCC(n2cc(C)c(=O)[nH]c2=O)C1 (stereo not drawn)
pEC50: < 3.70 | pIC50: < 3.70

O=C(CCCN1CCC(O)(c2cccc(C(F)(F)F)c2)CC1)c1ccc(F)cc1
pEC50: < 3.52 | pIC50: 4.27

CCOC(=O)c1c(NS(=O)(=O)c2ccc(C)cc2)sc2c1CCCC2
pEC50: < 3.70 | pIC50: 4.60

CC1=C2C(=CC(C)(CO)C2O)C(=O)C(C)(O)C12CC2 (stereo not drawn)
outcome: inactive

COc1cc2c(cc1OC)C1c3ccccc3C(C#N)(C2)N(C(=O)c2ccccc2)C1O (stereo not drawn)
outcome: inactive

CCOC(=O)C(CC#Cc1ccc(C#CCC(NC(C)=O)C(=O)OCC)cc1)NC(C)=O (stereo not drawn)
pEC50: < 3.70 | pIC50: < 3.70

CC1=C2[C@@H](c3ccccc3)C3C=CC2(C=C3C(F)(F)F)N(C(=O)NC2CCCCC2)C1=O (stereo partly drawn)
pEC50: < 4.79 | pIC50: < 4.79

CCCc1cc(=O)oc2c3c(cc(OC(C)COC)c12)O[C@H](C)[C@@H](C)C3=O (stereo partly drawn)
pEC50: < 4.11 | pIC50: 4.86

Cc1ccc(C)c2c1OC(=O)C1CNCOC21 (stereo not drawn)
pEC50: < 4.30 | pIC50: < 4.30

CCOC1C2c3cc4c(cc3CC(C#N)(c3ccccc32)N1C(=O)c1ccccc1)OCO4 (stereo not drawn)
outcome: inactive

COC1=CC2(c3ccccc3)C(=CC1=O)CCN2C(=O)c1ccccc1 (stereo not drawn)
outcome: inactive

O=C(O)c1cscc1-c1cccc2ccccc12
pEC50: < 3.70 | pIC50: 3.80

O=C(c1cccs1)N(C(=O)N1CCCCC1)c1ccccc1
pEC50: < 3.70 | pIC50: 3.95

CNC(=O)N1CCN(C(=O)NC)CCN(C(=O)NC)CC1
pEC50: < 3.70 | pIC50: < 3.70

COc1ccc(S(=O)(=O)N(CC(=O)O)c2ccccc2)cc1
outcome: inactive

CC(C)OP(=O)(OC(C)C)c1ncn(-c2ccc([N+](=O)[O-])cc2)n1
pEC50: < 3.29 | pIC50: 3.33

N/N=C(/CC(O)(C(F)(F)F)C(F)(F)F)c1ccccc1
pEC50: < 3.70 | pIC50: 3.95

Nc1ccc(Cl)cc1C(=O)N1CCN(c2ccc([N+](=O)[O-])cn2)CC1
pEC50: < 3.88 | pIC50: 4.56

Cc1ccc2oc(=O)cc(CC(=O)O)c2c1
pEC50: < 2.94 | pIC50: < 2.94

COc1cc2c3c(c1OC)-c1ccccc1C(C(OC(C)=O)c1ccccc1)C3N(C)CC2 (stereo not drawn)
outcome: inactive

CC(=O)Oc1ccc(/C=C/C(=O)OCCOC(=O)/C=C/c2ccc(OC(C)=O)c(OC(C)=O)c2)cc1OC(C)=O
pEC50: < 4.70 | pIC50: 5.06

CO/N=C(\C(=O)OC(=NC1CCCCC1)NC1CCCCC1)c1csc(NC(c2ccccc2)(c2ccccc2)c2ccccc2)n1
pEC50: < 3.70 | pIC50: 4.28

C=CCc1cc2c(C)cc(=O)oc2c(C)c1OC(C)=O
pEC50: < 4.72 | pIC50: < 4.72

CN1C(=O)CC2(C)c3cc(C=O)ccc3N(C)C12 (stereo not drawn)
outcome: inactive

CC12OC3(O)C4C5CC(C6C5C3C61)C42 (stereo not drawn)
outcome: inactive

CC(C(=O)NCCNC(=O)CCC(=O)N(C)O)C(=O)NCCNC(=O)CCC(=O)N(C)O
pEC50: < 3.70 | pIC50: 3.82

N#C/C(=C\c1cccc([N+](=O)[O-])c1)C(=O)c1ccccc1
pEC50: < 4.10 | pIC50: 4.39

O=C(O)C1CC=CCC1c1c2ccc(=O)cc-2oc2cc(O)ccc12 (stereo not drawn)
pEC50: 5.40 | pIC50: 3.85

CC(=O)N1c2ccccc2C2=CC3C4C(=O)N(c5ccccc5)C(=O)C4C21C1C(=O)N(c2ccccc2)C(=O)C31 (stereo not drawn)
outcome: inactive

CN(CCO)CCN1c2ccccc2Sc2ccccc21
outcome: inactive
